Experimental data reported in article PMC5301048, “Selection and early clinical evaluation of the brain‐penetrant 11β‐hydroxysteroid dehydrogenase type 1 (11β‐HSD1) inhibitor UE2343 (Xanamem™)” (British Journal of Pharmacology, 2017).
Where two headings read alike, the source gives them in different places.

Legend:
[1] = Microsomal stability, dog liver microsomes; assay type: in vitro ADME; conditions: mean ± SD [n]
Experimental: (§1) Microsomal stability was determined using pooled human, rat or dog liver microsomes according to the method described in WO2011135276 (Webster et al., 2011a).

[2] = Microsomal stability, human liver microsomes; assay type: in vitro ADME; conditions: mean ± SD [n]
Experimental: as §1

CYP3A4 = target: T1, CYP3A4 (Homo sapiens, UniProt P08684); test: Cytochrome P450 inhibition, CYP3A4; assay type: in vitro ADME; conditions: human liver microsomes; read-out: CYP450 isoform 3A4 IC50
T1 construct: tissue Cyprotex Discovery Limited; host or cells: human liver microsomes
T1 sequence (P08684 whole entry, canonical isoform): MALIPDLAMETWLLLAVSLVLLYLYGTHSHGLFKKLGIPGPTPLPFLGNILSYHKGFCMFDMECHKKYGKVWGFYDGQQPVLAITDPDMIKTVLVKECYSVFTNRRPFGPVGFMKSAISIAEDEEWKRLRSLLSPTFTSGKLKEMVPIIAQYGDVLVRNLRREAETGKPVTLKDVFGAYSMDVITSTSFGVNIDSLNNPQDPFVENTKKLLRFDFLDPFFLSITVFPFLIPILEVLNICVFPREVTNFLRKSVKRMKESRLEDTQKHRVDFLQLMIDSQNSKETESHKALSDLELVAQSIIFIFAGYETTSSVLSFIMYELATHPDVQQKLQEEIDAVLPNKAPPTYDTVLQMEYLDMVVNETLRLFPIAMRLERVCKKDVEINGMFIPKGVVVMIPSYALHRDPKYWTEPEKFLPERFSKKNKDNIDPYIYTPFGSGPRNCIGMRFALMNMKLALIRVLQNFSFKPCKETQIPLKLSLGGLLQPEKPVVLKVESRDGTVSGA
Experimental: (§2) Testing was performed by Cyprotex Discovery Limited, Cheshire, UK. Six test compound concentrations (0.4, 1, 4, 10, 40 and 100 μM; final DMSO concentration 0.25%, final microsome concentration 0.25 mg·mL^−1) were either pre‐incubated for 30 min in the absence and presence of NADPH or underwent a 0 min pre‐incubation with human liver microsomes. At the end of the pre‐incubation period, the probe substrate for each cytochrome P450 (CYP450) isoform (30 μM) and NADPH (1 mM) were then added (final DMSO concentration 0.3%), and the samples were incubated for 5 min at 37°C. Probe substrates were as follows: 1A2 – phenacetin, 2C9 – diclofenac, 2C19 – mephenytoin, 2D6 – dextromethorphan, 3A4 – midazolam and testosterone. Samples were subjected to LC–MS/MS analysis to determine metabolite concentrations. A decrease in the formation of the metabolite compared with vehicle control was used to calculate an IC50 value (test compound concentration which produces 50% inhibition) for each experimental condition.

CYP450 enzymes = test: Time-dependent cytochrome P450 inhibition; assay type: in vitro ADME, human; conditions: 30 min pre-incubation ± NADPH; in words
Experimental: as §2

[3] = Multiple ascending dose study, pharmacokinetics; assay type: in vivo; conditions: human; for AUC0–12h / Ae(0–12h) (%) / Ae(0–12h), amount excreted in urine / Oral clearance: mean (CV%); for estimated maximal CSF concentration / estimated mean CSF nadir at steady state (Cmin): calculated from plasma levels and CSF:plasma ratio; for Tmax / Cmax / half-life: plasma, oral
Experimental: A double‐blind, randomized, placebo‐controlled multiple ascending dose study was carried out at Linear Clinical Research Ltd, Nedlands, Australia. Each cohort consisted of eight healthy male subjects. Each subject received UE2343 or placebo twice daily (b.i.d ) (12 hourly) in the fed state for 9 days (Day 1 to Day 9) and once on the morning of Day 10 (19 doses in total). Dose cohorts were 10, 20 and 35 mg. Dose escalation and selection was dependent upon satisfactory review of the blinded safety (up to Day 17 ± 2) and plasma pharmacokinetics (up to Day 12) data from the preceding cohort. Safety, pharmacokinetic and pharmacodynamic assessments were made at pre‐determined time‐points during each part of the study.
(§3) Laboratory evaluation of clinical safety parameters was carried out using standard validated methods. Measurement of plasma pharmacodynamic markers [adrenocorticotropic hormone (ACTH), cortisol, 4‐androstenedione, testosterone and dehydroepiandrosterone sulphate (DHEA‐s)] was carried out using commercially available kits. Each method was fully validated prior to analysis. Urinary steroid metabolites were measured according to established methods (Boonen et al., 2013). UE2343 levels in plasma, urine and CSF was determined by LC–MS/MS using fully validated methods.
(§4) The data and statistical analysis comply with the recommendations on experimental design and analysis in pharmacology (Curtis et al., 2015). Levels of probability, P < 0.05 were deemed to constitute the threshold for statistical significance. Pharmacokinetic parameters, except Tmax (time of maximum observed drug concentration), are given as mean ± coefficient of variation (CV%). Tmax is given as median ± range. For each of the pharmacodynamic parameters [ACTH, cortisol, adrenal androgens, tetrahydrocortisols (THFs)/tetrahydrocortisone (THE) ratio], the maximum % change from baseline for each subject was subjected to ANOVA. For selected data, an additional covariate factor for the baseline was also included in the ANOVA/analysis of covariance (ANCOVA) model. Associated P‐values <0.05 for each comparison have been presented.

[4] = CSF study, plasma and CSF pharmacokinetics; assay type: in vivo; conditions: human; for Tmax: median (range); for Kp at 5 h / concentration at 5 h / Cmax / half-life / AUC(0-t): 35 mg; for concentration at 5 h: CSF; for AUC(0-t): read-out: AUC0–12h
Experimental: A non‐randomized, open label, multiple dose phase I study to determine the pharmacokinetic parameters of UE2343 in CSF was carried out at Linear Clinical Research Ltd, Nedlands, Australia. Four healthy male subjects each received 35 mg UE2343 b.i.d (12 hourly) fed (30 min after the start of a standard meal) for 3 days (Day 1 to Day 3) and once on the morning of Day 4 (seven doses in total). Plasma pharmacokinetic samples were taken from each subject on Day 1 and Day 4. A single CSF sample was taken from each subject at 5 h post‐final dose on Day 4, corresponding to the plasma Tmax (time to maximum plasma concentration).
as §3, §4

[5] = male, plasma, oral, 35 mg b.i.d, Day 1, mean (CV%)
[6] = male, plasma, oral, 35 mg b.i.d, Day 4, mean (CV%)

## O=C(c1csc(-c2cn[nH]c2)c1)N1C2CCC1CC(O)(c1ncccn1)C2 (centres unmarked) [compound 4]
[1]
  Liver microsomal stability (% parent at 30 min), dog: 92 ± 5 [3] % parent at 30 min
[2]
  Liver microsomal stability (% parent at 30 min), human: 99 ± 1 [3] % parent at 30 min
CYP3A4
  IC50: > 50 µM
CYP450 enzymes
  time‐dependent inhibition of CYP450 enzymes: No time‐dependent inhibition
[3]; 10 mg b.i.d, Day 1
  AUC0–12h: 207 (79%) ng^.h·mL^−1
  Ae(0–12h) (%): 0.35 (50%)
  Ae(0–12h), amount excreted in urine: 34.6 (50%) μg
[3]; 10 mg b.i.d, Day 10
  AUC0–12h: 1917 (66%) ng^.h·mL^−1
  Ae(0–12h) (%): 4.08 (46%)
  Ae(0–12h), amount excreted in urine: 408 (46%) μg
  Oral clearance: 7.24 (60%) L·h^−1
[3]; 10 mg b.i.d
  estimated maximal CSF concentration: 20 ng/mL
  estimated mean CSF nadir at steady state (Cmin): 13 ng/mL
[3]; 20 mg b.i.d, Day 1
  AUC0–12h: 623 (69%) ng^.h·mL^−1
  Ae(0–12h) (%): 0.54 (92%)
  Ae(0–12h), amount excreted in urine: 107 (92%) μg
[3]; 20 mg b.i.d, Day 10
  AUC0–12h: 3175 (30%) ng^.h·mL^−1
  Ae(0–12h) (%): 3.22 (38%)
  Ae(0–12h), amount excreted in urine: 644 (38%) μg
  Oral clearance: 6.85 (33%) L·h^−1
[3]; 20 mg b.i.d
  estimated maximal CSF concentration: 34 ng/mL
  estimated mean CSF nadir at steady state (Cmin): 22 ng/mL
[3]; 35 mg b.i.d, Day 1
  AUC0–12h: 1843 (33%) ng^.h·mL^−1
  Ae(0–12h) (%): 1.03 (46%)
  Ae(0–12h), amount excreted in urine: 362 (46%) μg
[3]; 35 mg b.i.d, Day 10
  AUC0–12h: 7909 (36%) ng^.h·mL^−1
  Ae(0–12h) (%): 3.84 (29%)
  Ae(0–12h), amount excreted in urine: 1345 (29%) μg
  Oral clearance: 5.02 (43%) L·h^−1
[3]; 35 mg b.i.d
  estimated maximal CSF concentration: 81 ng/mL
  estimated mean CSF nadir at steady state (Cmin): 50 ng/mL
[3]; 12 hourly dosing
  day by which steady state was achieved: ≤ 5 days
[3]; at steady state (Day 10)
  fraction excreted in urine in the dosing interval (% Ae): approximately 4%
[3]; highest dose level (35 mg b.i.d), in words
  increase in AUC0–12 from first dose to steady state: greater than fourfold
[3]; single and multiple dosing, range, read-out: plasma Tmax
  Tmax: 3 to 6 h
[3]; male, 10 mg, 10 mg b.i.d, Day 1, mean (CV%)
  Cmax: 29.1 ng/mL
[3]; male, 10 mg, 10 mg b.i.d, Day 1, median (range), read-out: Tmax
  Tmax: 6 h
[3]; male, 10 mg, 10 mg b.i.d, Day 10, mean (CV%)
  Cmax: 207 ng/mL
[3]; male, 10 mg, 10 mg b.i.d, Day 10, mean (CV%), read-out: t 1/2 (converted)
  half-life: 13.8 h
[3]; male, 10 mg, 10 mg b.i.d, Day 10, median (range), read-out: Tmax
  Tmax: 4 h
[3]; male, 20 mg, 20 mg b.i.d, Day 1, mean (CV%)
  Cmax: 89.2 ng/mL
[3]; male, 20 mg, 20 mg b.i.d, Day 1, median (range), read-out: Tmax
  Tmax: 4 h
[3]; male, 20 mg, 20 mg b.i.d, Day 10, mean (CV%)
  Cmax: 365 ng/mL
[3]; male, 20 mg, 20 mg b.i.d, Day 10, mean (CV%), read-out: t 1/2 (converted)
  half-life: 11.2 h
[3]; male, 20 mg, 20 mg b.i.d, Day 10, median (range), read-out: Tmax
  Tmax: 3 h
[3]; male, 35 mg, 35 mg b.i.d, Day 1, mean (CV%)
  Cmax: 268 ng/mL
[3]; male, 35 mg, 35 mg b.i.d, Day 1, median (range), read-out: Tmax
  Tmax: 4 h
[3]; male, 35 mg, 35 mg b.i.d, Day 10, mean (CV%)
  Cmax: 892 ng/mL
[3]; male, 35 mg, 35 mg b.i.d, Day 10, mean (CV%), read-out: t 1/2 (converted)
  half-life: 9.99 h
[3]; male, 35 mg, 35 mg b.i.d, Day 10, median (range), read-out: Tmax
  Tmax: 4 h
[3]; male, 35 mg, multiple doses 10, 20 and 35 mg every 12 h, range across doses, read-out: terminal t 1/2
  half-life: 10 to 14 h
[3]; male, multiple doses, range across doses, read-out: median time to peak concentration following each dose
  Tmax: 4 to 6 h
[4]; 35 mg b.i.d, Day 4, 5 h post-dose, mean (CV%), listed as UE2343
  CCSF, 5h (concentration in CSF): 69.8 (44%) ng·mL^−1
[4]; 35 mg b.i.d, Day 4
  Tmax: 5.1 (3–5) h
[4]; 35 mg b.i.d, Day 4 vs Day 1
  extent of accumulation in plasma after repeated dosing: 3.3 fold
[4]; 35 mg b.i.d, Days 1 and 4
  time post‐dose at which mean Cmax was reached: 5 h
[4]; 35 mg twice daily, in words
  CSF concentration relative to IC50 at Cmin: more than fivefold
[4]; 35 mg twice daily, in words, listed as UE2343
  CSF concentration relative to IC50 at Cmax: up to ninefold greater
[4]; male, CSF (relative to free plasma), oral, 35 mg b.i.d, Day 4, read-out: CSF levels as % of the free plasma levels, range
  Kp at 5 h: 0.25 to 0.4
[4]; male, CSF (relative to free plasma), oral, 35 mg b.i.d, at plasma Cmax on Day 4, read-out: mean CSF levels as % of the free plasma levels
  Kp at 5 h: 0.33
[4]; male, CSF (relative to total plasma), oral, 35 mg b.i.d, Day 4, read-out: CSF concentration as % of simultaneous total plasma levels, range
  Kp at 5 h: 0.0746 to 0.119
[4]; male, CSF (relative to total plasma), oral, 35 mg b.i.d, at plasma Cmax on Day 4, read-out: mean CSF levels as % of the total plasma levels
  Kp at 5 h: 0.1
[4]; male, oral, 35 mg b.i.d, Day 4, 5 h post-dose, mean (CV%), read-out: CCSF, 5h (concentration in CSF)
  concentration at 5 h: 69.8 ng/mL
[4]; male, oral, 35 mg b.i.d, Day 4, 5 h post-dose, read-out: concentration in the CSF, range over subjects
  concentration at 5 h: 41.2 to 99.9 ng/mL
[4]; [5]
  Cmax: 235 ng/mL
  half-life: 6.24 h
  AUC(0-t): 1710 ng·h/mL
[4]; [6]
  Cmax: 708 ng/mL
  half-life: 8.97 h
  AUC(0-t): 5670 ng·h/mL
[4]; male, plasma, oral, 35 mg b.i.d, Day 1, read-out: Tmax
  Tmax: 5.1 h
